Key:
Solubility in water = format: physicochemical
[1] = tested on: Cladosporium cladosporioides; assay: Zone of inhibition assay on TLC plates overlaid with agar containing fungal spores; format: cell-based; conditions: 10 μl spotted
Experimental: (§1) Fungi used: Alternaria alternata, Aureobasidium pullulans, Cladosporium cladosporioides, Penicillium digitatum Method: Base formulas for A, B, C and D were prepared as described in Table 1 below. Subsequently, test solutions were prepared either by: (1) taking a furanone or a base formula alone; or (2) by adding small amounts of suitably solubilized furanone (i.e., normally using ethanol) to a base formula so as to deliver a series of furanone concentrations in the test solutions (i.e., 10 ug/ml, 5 ug/ml, 1 ug/ml, 500 ng/ml, 100 ng/ml and 10 ng/ml). […] The various test solutions are set out at the left-hand margin of Tables 2A to 2D and can be described as follows: Once the test solutions were prepared, 10 μl of each test solution was spotted onto TLC plates. The plates were overlaid with agar containing fungal spores. The TLC plates were incubated in a high humidity environment until growth could be observed visually. At inhibitory furanone concentrations, a zone of inhibition where no fungal growth was observed formed above the test solution spot. Lower furanone concentrations resulting in a zone of inhibition correspond to higher test solution efficacy.

Aureobasidium pullulans = assay: as above; format: cell-based; conditions: 10 μl spotted
Experimental: as §1

Penicillium digitatum = assay: as above; format: cell-based; conditions: 10 μl spotted
Experimental: as §1

Alternaria alternata = assay: as above; format: cell-based; conditions: 10 μl spotted
Experimental: as §1

[2] = 10 ng/ml furanone in test solution
[3] = 100 ng/ml furanone in test solution
[4] = 500 ng/ml furanone in test solution
[5] = 1 μg/ml furanone in test solution
[6] = 5 μg/ml furanone in test solution
[7] = 10 μg/ml furanone in test solution

Question: For `O=C1C=C(Br)/C(=C/Br)O1` [Furanone 30], which Solubility in water (Solubility in water) is on record?
Answer: sparingly soluble in water

Question: What about the “Zone of Inhibition with 10 ng/ml of Furanone (mm)” value [1, 2] of the same compound?
Answer: 0 mm

Question: And the “Zone of Inhibition with 100 ng/ml of Furanone (mm)” value [1, 3]?
Answer: 9-10 mm

Question: And the “Zone of Inhibition with 500 ng/ml of Furanone (mm)” value [1, 4]?
Answer: 20-21 mm

Question: And the “Zone of Inhibition with 1 μg/ml of Furanone (mm)” value [1, 5]?
Answer: 20-30 mm

Question: And the “Zone of Inhibition with 5 μg/ml of Furanone (mm)” value [1, 6]?
Answer: 40-45 mm

Question: And the “Zone of Inhibition with 10 μg/ml of Furanone (mm)” value [1, 7]?
Answer: 42-56 mm

Question: What about the “Zone of Inhibition with 10 ng/ml of Furanone (mm)” value (Aureobasidium pullulans; [2]) of the same compound?
Answer: 0 mm

Question: What about the “Zone of Inhibition with 100 ng/ml of Furanone (mm)” value (Aureobasidium pullulans; [3]) of the same compound?
Answer: 0 mm

Question: What about the “Zone of Inhibition with 500 ng/ml of Furanone (mm)” value (Aureobasidium pullulans; [4]) of the same compound?
Answer: 0 mm

Question: What about the “Zone of Inhibition with 1 μg/ml of Furanone (mm)” value (Aureobasidium pullulans; [5]) of the same compound?
Answer: 0 mm

Question: What about the “Zone of Inhibition with 5 μg/ml of Furanone (mm)” value (Aureobasidium pullulans; [6]) of the same compound?
Answer: 3-10 mm

Question: What about the “Zone of Inhibition with 10 μg/ml of Furanone (mm)” value (Aureobasidium pullulans; [7]) of the same compound?
Answer: 15-17 mm

Question: What about the “Zone of Inhibition with 10 ng/ml of Furanone (mm)” value (Penicillium digitatum; [2]) of the same compound?
Answer: 0 mm

Question: What about the “Zone of Inhibition with 100 ng/ml of Furanone (mm)” value (Penicillium digitatum; [3]) of the same compound?
Answer: 0 mm

Question: What about the “Zone of Inhibition with 500 ng/ml of Furanone (mm)” value (Penicillium digitatum; [4]) of the same compound?
Answer: 10-19 mm

Question: And the “Zone of Inhibition with 1 μg/ml of Furanone (mm)” value (Penicillium digitatum; [5])?
Answer: 12-15 mm

Question: And the “Zone of Inhibition with 10 μg/ml of Furanone (mm)” value (Penicillium digitatum; [7])?
Answer: 32-45 mm

Question: What about the “Zone of Inhibition with 10 ng/ml of Furanone (mm)” value (Alternaria alternata; [2]) of the same compound?
Answer: 0 mm

Question: And the “Zone of Inhibition with 100 ng/ml of Furanone (mm)” value (Alternaria alternata; [3])?
Answer: 2-3 mm

Question: What about the “Zone of Inhibition with 500 ng/ml of Furanone (mm)” value (Alternaria alternata; [4]) of the same compound?
Answer: 3-4 mm

Question: What about the “Zone of Inhibition with 5 μg/ml of Furanone (mm)” value (Alternaria alternata; [6]) of the same compound?
Answer: 35-37 mm

Question: What about the “Zone of Inhibition with 10 μg/ml of Furanone (mm)” value (Alternaria alternata; [7]) of the same compound?
Answer: 40-42 mm
